Measurements from patent publication US20260007681A1, “INDOLE DERIVATIVES AS ESTROGEN RECEPTOR DEGRADERS” (REGENTS OF THE UNIVERSITY OF MICHIGAN, priority 2022, published 2026).

The compounds below were run against ER (Homo sapiens (Human), UniProt P03372) (assay: Western blot analysis (Compounds B1-B278)). Conditions: ER degradation by traditional Western blot; DC50 classes.
Type: cell-based
Description: Western Blot Analysis. The cells that are treated with the compounds are lysed in Radioimmunoprecipitation Assay Protein Lysis and Extraction Buffer (e.g., 25 mmol/L Tris.HCl, pH 7.6, 150 mmol/L NaCl, 1% Nonidet P-40, 1% sodium deoxycholate, and 0.1% sodium dodecyl sulfate) containing proteinase inhibitor cocktail. Equal amounts of total protein are electrophoresed through 10% SDS-polyacrylamide gels after determination of protein concentration by BCA assay. The separated protein bands are transferred onto PVDF membranes and blotted against different antibodies. The blots are scanned, and the band intensities are quantified (e.g., by using GelQuant.NET software provided by biochemlabsolutions.com). The relative mean intensity of target proteins is expressed after normalization to the intensity of glyceraldehyde-3-phosphate dehydrogenase bands.
Western Blot Analysis. Western blot analysis was performed essentially as described previously. The cells treated with indicated compounds were lysed in Radioimmunoprecipitation Assay Protein Lysis and Extraction Buffer (25 mmol/L Tris.HCl, pH 7.6, 150 mmol/L NaCl, 1% Nonidet P-40, 1% sodium deoxycholate, and 0.1% sodium dodecyl sulfate) containing proteinase inhibitor cocktail (Roche Diagnostics, Mannheim, Germany). Equal amounts of total protein were electrophoresed through 10% SDS-polyacrylamide gels after determination of protein concentration by BCA assay (Fisher Scientific, Pittsburgh, PA). The separated protein bands were transferred onto PVDF membranes (GE Healthcare Life Sciences, Marlborough, MA) and blotted against different antibodies, as indicated. The blots were scanned, and the band intensities were quantified using GelQuant.NET software provided by biochemlabsolutions.com. The relative mean intensity of target proteins was expressed after normalization to the intensity of glyceraldehyde-3-phosphate dehydrogenase bands.

Sequence of ER (P03372 whole entry): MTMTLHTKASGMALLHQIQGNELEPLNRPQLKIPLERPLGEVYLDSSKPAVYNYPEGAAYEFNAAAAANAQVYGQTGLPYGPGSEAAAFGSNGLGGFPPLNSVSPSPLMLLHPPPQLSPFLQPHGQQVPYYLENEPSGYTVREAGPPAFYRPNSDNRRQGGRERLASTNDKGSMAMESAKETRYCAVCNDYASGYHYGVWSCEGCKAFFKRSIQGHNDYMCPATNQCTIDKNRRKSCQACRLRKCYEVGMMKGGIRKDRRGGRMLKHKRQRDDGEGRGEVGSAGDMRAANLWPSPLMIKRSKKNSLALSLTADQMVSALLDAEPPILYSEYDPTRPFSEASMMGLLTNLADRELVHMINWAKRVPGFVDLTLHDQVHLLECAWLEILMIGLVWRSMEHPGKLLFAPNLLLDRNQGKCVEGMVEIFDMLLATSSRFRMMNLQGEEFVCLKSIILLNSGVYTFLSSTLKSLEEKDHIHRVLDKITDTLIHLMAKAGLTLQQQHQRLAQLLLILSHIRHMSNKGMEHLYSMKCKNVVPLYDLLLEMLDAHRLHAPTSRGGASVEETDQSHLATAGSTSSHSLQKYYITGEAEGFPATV

SMILES | Traditional Western Degradation Potency
C[C@@H]1Cc2c([nH]c3ccccc23)[C@@H](c2c(F)cc(C3CCC(CN4CC(CN5Cc6cc7c(cc6C5)C(=O)N(C5CCC(=O)NC5=O)C7=O)C4)CC3)cc2F)N1CC(F)F (stereo partly drawn) [Compound B83, 6-((1-((4-(4-((1R,3R)-2-(2,2-difluoroethyl)-3-methyl-2,3,4,9-tetrahydro-1H-pyrido[3,4-b]indol-1-yl)-3,5-difluorophenyl)cyclohexyl)methyl)azetidin-3-yl)methyl)-2-(2,6-dioxopiperidin-3-yl)-6,7-dihydropyrrolo[3,4-f]isoindole-1,3(2H,5H)-dione] | C (“C”: >100 nM)
C[C@@H]1Cc2c([nH]c3ccccc23)[C@@H](c2ccc(C3=CCC4(CC3)CCN(C(=O)CN3Cc5cc6c(cc5C3)C(=O)N(C3CCC(=O)NC3=O)C6=O)CC4)cc2F)N1CC(F)F (stereo partly drawn) [Compound B241, 6-(2-(9-(4-((1R,3R)-2-(2,2-difluoroethyl)-3-methyl-2,3,4,9-tetrahydro-1H-pyrido[3,4-b]indol-1-yl)-3-fluorophenyl)-3-azaspiro[5.5]undec-8-en-3-yl)-2-oxoethyl)-2-(2,6-dioxopiperidin-3-yl)-6,7-dihydropyrrolo[3,4-f]isoindole-1,3(2H,5H)-dione] | C (“C”: >100 nM)
C[C@@H]1Cc2c([nH]c3ccccc23)[C@@H](c2ccc(C3=CCC(C(=O)N4CCC(N5Cc6cc7c(cc6C5)C(=O)N(C5CCC(=O)NC5=O)C7=O)CC4)CC3)nc2)N1CC(F)F (stereo partly drawn) [Compound B235, 6-(1-(4-(5-((1R,3R)-2-(2,2-difluoroethyl)-3-methyl-2,3,4,9-tetrahydro-1H-pyrido[3,4-b]indol-1-yl)pyridin-2-yl)cyclohex-3-ene-1-carbonyl)piperidin-4-yl)-2-(2,6-dioxopiperidin-3-yl)-6,7-dihydropyrrolo[3,4-f]isoindole-1,3(2H,5H)-dione] | C (“C”: >100 nM)
C[C@@H]1Cc2c([nH]c3ccccc23)[C@@H](c2ccc(C3CCC(C(=O)N4CCC(N5Cc6cc7c(cc6C5)C(=O)N(C5CCC(=O)NC5=O)C7=O)CC4)CC3)cn2)N1CC(F)F (stereo partly drawn) [Compound B234, 6-(1-(4-(6-((1S,3R)-2-(2,2-difluoroethyl)-3-methyl-2,3,4,9-tetrahydro-1H-pyrido[3,4-b]indol-1-yl)pyridin-3-yl)cyclohexane-1-carbonyl)piperidin-4-yl)-2-(2,6-dioxopiperidin-3-yl)-6,7-dihydropyrrolo[3,4-f]isoindole-1,3(2H,5H)-dione] | C (“C”: >100 nM)
C[C@@H]1Cc2c([nH]c3ccccc23)[C@@H](c2c(F)cc(N3CC4(CCN(C(=O)CN5Cc6cc7c(cc6C5)C(=O)N(C5CCC(=O)NC5=O)C7)C4)C3)cc2F)N1CC(F)F (stereo partly drawn) [Compound B9, 3-(6-(2-(2-(4-((1R,3R)-2-(2,2-difluoroethyl)-3-methyl-2,3,4,9-tetrahydro-1H-pyrido[3,4-b]indol-1-yl)-3,5-difluorophenyl)-2,6-diazaspiro[3.4]octan-6-yl)-2-oxoethyl)-1-oxo-3,5,6,7-tetrahydropyrrolo[3,4-f]isoindol-2(1H)-yl)piperidine-2,6-dione] | A (“A”: <10 nM)
C[C@@H]1Cc2c([nH]c3ccccc23)[C@@H](c2c(F)cc(C3=CCC(C(=O)N4CCC(N5Cc6cc7c(cc6C5)C(=O)N(C5CCC(=O)NC5=O)C7=O)CC4)CC3)cc2F)N1CC1(F)CC1 (stereo partly drawn) [Compound B249, 6-(1-(3′,5′-difluoro-4′-((1R,3R)-2-((1-fluorocyclopropyl)methyl)-3-methyl-2,3,4,9-tetrahydro-1H-pyrido[3,4-b]indol-1-yl)-2,3,4,5-tetrahydro-[1,1′-biphenyl]-4-carbonyl)piperidin-4-yl)-2-(2,6-dioxopiperidin-3-yl)-6,7-dihydropyrrolo[3,4-f]isoindole-1,3(2H,5H)-dione] | C (“C”: >100 nM)
C[C@@H]1Cc2c([nH]c3ccccc23)[C@@H](c2c(F)cc(N3CC4(CCCN(C(=O)CN5Cc6cc7c(cc6C5)C(=O)N(C5CCC(=O)NC5=O)C7)C4)C3)cc2F)N1CC(F)F (stereo partly drawn) [Compound B12, 3-(6-(2-(2-(4-((1R,3R)-2-(2,2-difluoroethyl)-3-methyl-2,3,4,9-tetrahydro-1H-pyrido[3,4-b]indol-1-yl)-3,5-difluorophenyl)-2,6-diazaspiro[3.5]nonan-6-yl)-2-oxoethyl)-1-oxo-3,5,6,7-tetrahydropyrrolo[3,4-f]isoindol-2(1H)-yl)piperidine-2,6-dione] | C (“C”: >100 nM)

The next lines start with the values.

Traditional Western Degradation Potency | SMILES
C (“C”: >100 nM) | C[C@@H]1Cc2c([nH]c3ccccc23)[C@@H](c2c(F)cc(N3CCCC4(CCN(C(=O)CN5Cc6cc7c(cc6C5)C(=O)N(C5CCC(=O)NC5=O)C7=O)C4)C3)cc2F)N1CC(F)F (stereo partly drawn) [Compound B21, 6-(2-(7-(4-((1R,3R)-2-(2,2-difluoroethyl)-3-methyl-2,3,4,9-tetrahydro-1H-pyrido[3,4-b]indol-1-yl)-3,5-difluorophenyl)-2,7-diazaspiro[4.5]decan-2-yl)-2-oxoethyl)-2-(2,6-dioxopiperidin-3-yl)-6,7-dihydropyrrolo[3,4-f]isoindole-1,3(2H,5H)-dione]
B (“B”: 10-100 nM) | C[C@@H]1Cc2c([nH]c3ccccc23)[C@@H](c2c(F)cc(N3CCC4(CCN(C(=O)CN5Cc6cc7c(cc6C5)C(=O)N(C5CCC(=O)NC5=O)C7=O)C4)C3)cc2F)N1CC(F)F (stereo partly drawn) [Compound B22, 6-(2-(7-(4-((1R,3R)-2-(2,2-difluoroethyl)-3-methyl-2,3,4,9-tetrahydro-1H-pyrido[3,4-b]indol-1-yl)-3,5-difluorophenyl)-2,7-diazaspiro[4.4]nonan-2-yl)-2-oxoethyl)-2-(2,6-dioxopiperidin-3-yl)-6,7-dihydropyrrolo[3,4-f]isoindole-1,3(2H,5H)-dione]
A (“A”: <10 nM) | C[C@H]1Cc2c([nH]c3ccccc23)[C@H](c2c(F)cc(N3CC4(CCN(C(=O)CN5Cc6cc7c(cc6C5)C(=O)N(C5CCC(=O)NC5=O)C7=O)CC4)C3)cc2F)N1CC(F)F (stereo partly drawn) [Compound B27, 6-(2-(2-(4-((1S,3S)-2-(2,2-difluoroethyl)-3-methyl-2,3,4,9-tetrahydro-1H-pyrido[3,4-b]indol-1-yl)-3,5-difluorophenyl)-2,7-diazaspiro[3.5]nonan-7-yl)-2-oxoethyl)-2-(2,6-dioxopiperidin-3-yl)-6,7-dihydropyrrolo[3,4-f]isoindole-1,3(2H,5H)-dione]
B (“B”: 10-100 nM) | C[C@@H]1Cc2c([nH]c3ccccc23)[C@@H](c2c(F)cc(N3CC4(CCN(CC(=O)N5Cc6cc7c(cc6C5)C(=O)N(C5CCC(=O)NC5=O)C7=O)CC4)C3)cc2F)N1CC(F)F (stereo partly drawn) [Compound B37, 6-(2-(2-(4-((1R,3R)-2-(2,2-difluoroethyl)-3-methyl-2,3,4,9-tetrahydro-1H-pyrido[3,4-b]indol-1-yl)-3,5-difluorophenyl)-2,7-diazaspiro[3.5]nonan-7-yl)acetyl)-2-(2,6-dioxopiperidin-3-yl)-6,7-dihydropyrrolo[3,4-f]isoindole-1,3(2H,5H)-dione]
C (“C”: >100 nM) | C[C@@H]1Cc2c([nH]c3ccccc23)[C@@H](c2c(F)cc(N3CCC(N4CC(C(=O)N5Cc6cc7c(cc6C5)C(=O)N(C5CCC(=O)NC5=O)C7=O)C4)CC3)cc2F)N1CC(F)F (stereo partly drawn) [Compound B59, 6-(1-(1-(4-((1R,3R)-2-(2,2-difluoroethyl)-3-methyl-2,3,4,9-tetrahydro-1H-pyrido[3,4-b]indol-1-yl)-3,5-difluorophenyl)piperidin-4-yl)azetidine-3-carbonyl)-2-(2,6-dioxopiperidin-3-yl)-6,7-dihydropyrrolo[3,4-f]isoindole-1,3(2H,5H)-dione]
B (“B”: 10-100 nM) | C[C@@H]1Cc2c([nH]c3ccccc23)[C@@H](c2c(F)cc(C3CCN(C(=O)C4CCC(N5Cc6cc7c(cc6C5)C(=O)N(C5CCC(=O)NC5=O)C7=O)CC4)CC3)cc2F)N1CC(F)F (stereo partly drawn) [Compound B94, 6-(4-(4-(4-((1R,3R)-2-(2,2-difluoroethyl)-3-methyl-2,3,4,9-tetrahydro-1H-pyrido[3,4-b]indol-1-yl)-3,5-difluorophenyl)piperidine-1-carbonyl)cyclohexyl)-2-(2,6-dioxopiperidin-3-yl)-6,7-dihydropyrrolo[3,4-f]isoindole-1,3(2H,5H)-dione]
B (“B”: 10-100 nM) | C[C@@H]1Cc2c([nH]c3ccccc23)[C@@H](c2c(F)cc(-c3ccc(C(=O)N4CCC(N5Cc6cc7c(cc6C5)C(=O)N(C5CCC(=O)NC5=O)C7=O)CC4)nc3)cc2F)N1CC(F)F (stereo partly drawn) [Compound B87, 6-(1-(5-(4-((1R,3R)-2-(2,2-difluoroethyl)-3-methyl-2,3,4,9-tetrahydro-1H-pyrido[3,4-b]indol-1-yl)-3,5-difluorophenyl)picolinoyl)piperidin-4-yl)-2-(2,6-dioxopiperidin-3-yl)-6,7-dihydropyrrolo[3,4-f]isoindole-1,3(2H,5H)-dione]
